Here are results for 17 compounds from ChEMBL document CHEMBL3991601, “The target landscape of clinical kinase drugs” (Science, 2017).

Structures are written as SMILES. Active and inactive are the calls of the source. For most assays here, no stated cut-off is given here; in the data, actives have a measured Kd and inactives only a lower limit.

The target of assay [1] is T1, Serine/threonine-protein kinase 3 (Homo sapiens, UniProt Q13188).
T1 sequence (Q13188 whole entry): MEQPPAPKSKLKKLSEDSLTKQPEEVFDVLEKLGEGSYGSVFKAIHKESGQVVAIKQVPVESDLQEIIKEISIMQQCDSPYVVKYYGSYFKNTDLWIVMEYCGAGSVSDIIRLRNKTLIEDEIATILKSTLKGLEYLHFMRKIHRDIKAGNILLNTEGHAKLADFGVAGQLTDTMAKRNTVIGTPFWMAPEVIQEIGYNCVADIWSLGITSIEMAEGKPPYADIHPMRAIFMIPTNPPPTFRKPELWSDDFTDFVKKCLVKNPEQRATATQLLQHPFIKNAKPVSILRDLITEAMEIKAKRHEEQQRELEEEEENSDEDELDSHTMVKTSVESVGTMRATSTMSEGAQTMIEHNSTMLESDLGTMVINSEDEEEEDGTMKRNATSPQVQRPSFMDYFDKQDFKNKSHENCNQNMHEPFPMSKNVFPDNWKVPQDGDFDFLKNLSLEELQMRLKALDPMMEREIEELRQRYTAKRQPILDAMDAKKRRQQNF

Another assay deals with T2, TGF-beta receptor type-1 (Homo sapiens, UniProt P36897).
T2 sequence (P36897 whole entry): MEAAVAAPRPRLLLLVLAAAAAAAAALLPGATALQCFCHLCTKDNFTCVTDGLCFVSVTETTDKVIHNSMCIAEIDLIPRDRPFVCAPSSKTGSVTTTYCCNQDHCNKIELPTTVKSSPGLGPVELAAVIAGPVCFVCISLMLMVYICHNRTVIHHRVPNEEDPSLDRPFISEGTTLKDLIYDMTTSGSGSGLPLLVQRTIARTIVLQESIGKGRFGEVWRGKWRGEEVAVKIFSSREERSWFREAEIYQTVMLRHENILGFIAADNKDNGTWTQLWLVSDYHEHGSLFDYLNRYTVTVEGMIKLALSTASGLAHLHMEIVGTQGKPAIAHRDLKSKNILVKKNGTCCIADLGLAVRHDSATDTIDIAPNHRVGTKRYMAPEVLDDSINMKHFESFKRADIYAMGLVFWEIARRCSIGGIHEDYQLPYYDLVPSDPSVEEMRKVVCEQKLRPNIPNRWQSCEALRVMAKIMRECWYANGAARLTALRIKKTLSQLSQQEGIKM

In assay [2] the target is Serine/threonine-protein kinase 26 (Homo sapiens, UniProt Q9P289).
Serine/threonine-protein kinase 26, sequence (Q9P289 whole entry): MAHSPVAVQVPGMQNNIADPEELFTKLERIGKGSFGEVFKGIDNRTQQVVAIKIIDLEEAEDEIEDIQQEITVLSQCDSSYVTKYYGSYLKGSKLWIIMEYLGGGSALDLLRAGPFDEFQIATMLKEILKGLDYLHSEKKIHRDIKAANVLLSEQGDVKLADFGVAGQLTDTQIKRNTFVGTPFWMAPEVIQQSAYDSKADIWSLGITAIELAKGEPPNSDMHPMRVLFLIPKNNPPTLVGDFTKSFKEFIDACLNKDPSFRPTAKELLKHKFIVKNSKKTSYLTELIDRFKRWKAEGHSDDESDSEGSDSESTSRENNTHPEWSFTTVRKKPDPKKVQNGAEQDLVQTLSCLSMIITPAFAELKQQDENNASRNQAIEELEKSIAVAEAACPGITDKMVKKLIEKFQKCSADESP
Assay [3] addresses T3, Serine/threonine-protein kinase TAO3 (Homo sapiens, UniProt Q9H2K8).
T3 sequence (Q9H2K8 whole entry): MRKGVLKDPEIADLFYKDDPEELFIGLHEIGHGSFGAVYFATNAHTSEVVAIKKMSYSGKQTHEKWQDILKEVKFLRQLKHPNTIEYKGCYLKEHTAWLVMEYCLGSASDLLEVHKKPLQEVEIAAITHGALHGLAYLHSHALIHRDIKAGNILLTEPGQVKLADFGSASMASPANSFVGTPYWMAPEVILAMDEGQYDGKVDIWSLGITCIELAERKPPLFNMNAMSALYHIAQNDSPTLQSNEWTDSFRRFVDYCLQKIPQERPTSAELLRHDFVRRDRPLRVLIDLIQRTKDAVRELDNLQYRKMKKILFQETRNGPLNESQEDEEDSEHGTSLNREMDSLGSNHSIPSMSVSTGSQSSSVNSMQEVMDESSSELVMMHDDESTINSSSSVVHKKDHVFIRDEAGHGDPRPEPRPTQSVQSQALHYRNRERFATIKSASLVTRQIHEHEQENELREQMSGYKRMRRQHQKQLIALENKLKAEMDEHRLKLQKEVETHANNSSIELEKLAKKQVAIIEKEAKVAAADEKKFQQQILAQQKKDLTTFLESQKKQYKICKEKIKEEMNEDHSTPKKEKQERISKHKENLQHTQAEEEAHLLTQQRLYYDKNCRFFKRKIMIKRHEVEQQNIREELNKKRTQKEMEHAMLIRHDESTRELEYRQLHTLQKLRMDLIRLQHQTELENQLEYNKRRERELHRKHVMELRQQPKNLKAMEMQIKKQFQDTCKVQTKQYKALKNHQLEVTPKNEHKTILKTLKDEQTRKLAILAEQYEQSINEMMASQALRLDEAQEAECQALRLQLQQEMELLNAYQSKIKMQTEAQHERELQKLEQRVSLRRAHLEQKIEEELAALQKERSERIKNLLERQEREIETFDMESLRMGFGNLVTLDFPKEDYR

In assay [4] the target is T4, Very long-chain specific acyl-CoA dehydrogenase, mitochondrial (Homo sapiens, UniProt P49748).
T4 sequence (P49748 whole entry): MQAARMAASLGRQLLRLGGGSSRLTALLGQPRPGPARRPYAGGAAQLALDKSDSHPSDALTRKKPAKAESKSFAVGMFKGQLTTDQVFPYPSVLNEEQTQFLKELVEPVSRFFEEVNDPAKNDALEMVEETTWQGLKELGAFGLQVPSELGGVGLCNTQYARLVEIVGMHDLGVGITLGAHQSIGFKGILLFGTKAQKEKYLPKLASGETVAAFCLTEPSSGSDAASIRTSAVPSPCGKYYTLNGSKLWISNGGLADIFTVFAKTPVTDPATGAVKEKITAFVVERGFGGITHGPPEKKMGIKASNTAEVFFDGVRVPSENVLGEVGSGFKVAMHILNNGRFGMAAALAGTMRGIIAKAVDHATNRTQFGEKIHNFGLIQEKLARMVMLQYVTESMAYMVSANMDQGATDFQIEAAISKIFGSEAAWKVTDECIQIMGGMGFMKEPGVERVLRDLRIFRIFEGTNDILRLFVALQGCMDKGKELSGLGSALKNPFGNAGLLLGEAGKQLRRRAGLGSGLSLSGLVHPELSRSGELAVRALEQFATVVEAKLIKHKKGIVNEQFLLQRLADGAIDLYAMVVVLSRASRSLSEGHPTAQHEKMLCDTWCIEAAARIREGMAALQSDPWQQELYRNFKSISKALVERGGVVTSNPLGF

As for `C[C@@H]1CN(Cc2ccc(F)cc2)[C@@H](C)CN1C(=O)c1cc2c(C(=O)C(=O)N(C)C)cn(C)c2cc1Cl` [TALMAPIMOD], the Kd (in assay [1]; at TGF-beta receptor type-1; in assay [2]; in assay [3]; in assay [4]) was > 30 µM (inactive) each time.

As for `O=C(Nc1ccc(-c2ccnc(Nc3ccc(N4CCOCC4)cc3)n2)cc1)C1CCCN1` (stereo not given) [XL-019], the Kd (in assay [1]; on TGF-beta receptor type-1; in assay [2]; in assay [3]; in assay [4]) was > 30 µM (inactive) each time.

With `CCn1c(=O)c(-c2cc[nH]n2)cc2c(C)nc(N)nc21` [VOXTALISIB], the Kd (in assay [1]; at TGF-beta receptor type-1; in assay [2]; in assay [3]; in assay [4]) was > 30 µM (inactive) each time.

For the compound `Cn1cc(-c2ccc(F)c(C(F)(F)F)c2)nc1C1CCN(c2ncnc3[nH]ncc23)CC1` [LY-2584702], the Kd (in assay [1]; at TGF-beta receptor type-1; in assay [2]; in assay [3]; in assay [4]) was > 30 µM (inactive) in each case.

Regarding `Cc1cc2c(F)c(Oc3ncnn4cc(OC[C@@H](C)OC(=O)[C@H](C)N)c(C)c34)ccc2[nH]1` [BRIVANIB ALANINATE], the Kd (in assay [1]; at TGF-beta receptor type-1; in assay [2]; in assay [3]; in assay [4]) was > 30 µM (inactive) throughout.

In the case of `CNC(=O)c1ccc(C)c(-n2c(C)cc(OCc3ccc(F)cc3F)c(Br)c2=O)c1` [PH-797804], the Kd (in assay [1]; on TGF-beta receptor type-1; in assay [2]; in assay [3]; in assay [4]) was > 30 µM (inactive) each time.

Regarding `CNC(=O)c1cc(Oc2ccc(NC(=O)Nc3ccc(Cl)c(C(F)(F)F)c3)c(F)c2)ccn1` [REGORAFENIB], the Kd (in assay [1]; on TGF-beta receptor type-1; in assay [2]; in assay [3]; in assay [4]) was > 30 µM (inactive) in each case.

For the compound `COC(=O)N[C@@H](C)CNc1nccc(-c2cn(C(C)C)nc2-c2cc(Cl)cc(NS(C)(=O)=O)c2F)n1` [ENCORAFENIB], the Kd in assay [1] is > 30 µM (inactive); on TGF-beta receptor type-1 it was > 30 µM (inactive); in assay [2] it was > 30 µM (inactive); in assay [3], 3.32 µM (active); in assay [4], > 30 µM (inactive).

Take `Cc1c(F)cc(C(=O)NC2CC2)cc1-c1ccc(C(=O)NCC(C)(C)C)cn1` [LOSMAPIMOD]: the Kd (in assay [1]; at TGF-beta receptor type-1; in assay [2]; in assay [3]; in assay [4]) was > 30 µM (inactive) throughout.

With `Cc1cc(-c2cc(O)ccc2Cl)cc2nnc(Nc3ccc(OCCN4CCCC4)cc3)nc12`, the Kd was > 30 µM (inactive) in assay [1]; 0.002 µM (active) at TGF-beta receptor type-1; > 30 µM (inactive) in assay [2]; > 30 µM (inactive) in assay [3]; > 30 µM (inactive) in assay [4].

As to `C=CC(=O)N1CCC(Oc2cc3c(Nc4ccc(Cl)c(Cl)c4F)ncnc3cc2OC)CC1` [POZIOTINIB], the Kd (in assay [1]; at TGF-beta receptor type-1; in assay [2]; in assay [3]; in assay [4]) was > 30 µM (inactive) throughout.

`O=C1NC(=O)/C(=C/c2ccc3nccc(-c4ccncc4)c3c2)S1` [GSK-1059615]: the Kd (in assay [1]; on TGF-beta receptor type-1; in assay [2]; in assay [3]; in assay [4]) was > 30 µM (inactive) in each case.

On to `CC[C@@H]1C(=O)N(C)c2cnc(Nc3ccc(C(=O)N[C@H]4CC[C@H](N5CCN(CC6CC6)CC5)CC4)cc3OC)nc2N1C(C)C` [VOLASERTIB], for which the Kd (in assay [1]; on TGF-beta receptor type-1; in assay [2]; in assay [3]; in assay [4]) was > 30 µM (inactive) in each case.

Take `O=c1sn(-c2cccc3ccccc23)c(=O)n1Cc1ccccc1` [TIDEGLUSIB]: the Kd (in assay [1]; at TGF-beta receptor type-1; in assay [2]; in assay [3]; in assay [4]) was > 30 µM (inactive) each time.

`CO[C@H]1C[C@@H]2CC[C@@H](C)[C@@](O)(O2)C(=O)C(=O)N2CCCC[C@H]2C(=O)O[C@H]([C@H](C)C[C@@H]2CC[C@@H](OCCO)[C@H](OC)C2)CC(=O)[C@H](C)/C=C(\C)[C@@H](O)[C@@H](OC)C(=O)[C@H](C)C[C@H](C)/C=C/C=C/C=C/1C` [EVEROLIMUS]: the Kd (in assay [1]; at TGF-beta receptor type-1; in assay [2]; in assay [3]; in assay [4]) was > 30 µM (inactive) each time.

For `CN(C)C(=O)c1cc2cnc(Nc3ccc(N4CCNCC4)cn3)nc2n1C1CCCC1` [RIBOCICLIB], the Kd (in assay [1]; on TGF-beta receptor type-1; in assay [2]; in assay [3]; in assay [4]) was > 30 µM (inactive) throughout.

For the compound `CC(C)Nc1cc(-c2c[nH]c(C(=O)N[C@H](CO)c3cccc(Cl)c3)c2)c(Cl)cn1` [ULIXERTINIB], the Kd (in assay [1]; at TGF-beta receptor type-1; in assay [2]; in assay [3]; in assay [4]) was > 30 µM (inactive) throughout.
